This assay deals with T1, human MAO-B (Homo sapiens, UniProt P27338).
T1 construct: expressed in transfected cells; host or cells: EBNA cells (transient transfection); membranes obtained by homogenisation and centrifugation at 45,000 x g
T1 sequence (P27338 1-520): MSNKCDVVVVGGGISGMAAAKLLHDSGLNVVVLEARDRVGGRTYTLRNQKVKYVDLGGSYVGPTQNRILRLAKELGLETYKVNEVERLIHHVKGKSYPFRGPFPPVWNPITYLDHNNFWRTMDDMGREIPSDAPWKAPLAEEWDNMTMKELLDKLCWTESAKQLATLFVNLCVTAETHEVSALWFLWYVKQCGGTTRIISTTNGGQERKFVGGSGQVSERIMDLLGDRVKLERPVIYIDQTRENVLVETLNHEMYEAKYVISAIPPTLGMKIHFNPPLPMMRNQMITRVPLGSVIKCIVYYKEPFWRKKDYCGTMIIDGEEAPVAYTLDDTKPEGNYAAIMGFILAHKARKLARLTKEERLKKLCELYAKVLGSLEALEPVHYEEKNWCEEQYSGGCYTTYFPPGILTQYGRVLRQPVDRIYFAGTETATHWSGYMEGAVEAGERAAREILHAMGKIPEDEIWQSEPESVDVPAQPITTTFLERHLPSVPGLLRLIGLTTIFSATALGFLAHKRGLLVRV
The experiment in a line: MAO-B enzymatic activity assay (spectrophotometric, tyramine/Amplex Red) on membranes of transfected EBNA cells. It counts as biochemical. The following applies: membranes of EBNA cells transfected with human MAO-B cDNA; substrate tyramine; 30 min preincubation at 37° C.; read-out: IC50, MAO-B inhibition. Here is the method:
The cDNA's encoding human MAO-A and MAO-B were transiently transfected into EBNA cells using the procedure described by E.-J. Schlaeger and K. Christensen (Transient Gene Expression in Mammalian Cells Grown in Serum-free Suspension Culture; Cytotechnology, 15: 1-13, 1998). After transfection, cells were homogeneised by means of a Polytron homogeneiser in 20 mM Tris HCl buffer, pH 8.0, containing 0.5 mM EGTA and 0.5 mM phenylmethanesulfonyl fluoride. Cell membranes were obtained by centrifugation at 45,000×g and, after two rinsing step with 20 mM Tris HCl buffer, pH 8.0, containing 0.5 mM EGTA, membranes were eventually re-suspended in the above buffer and aliquots stored at −80° C. until use.
MAO-A and MAO-B enzymatic activity was assayed in 96-well-plates using a spectrophotometric assay adapted from the method described by M. Zhou and N. Panchuk-Voloshina (A One-Step Fluorometric Method for the Continuous Measurement of Monoamine Oxidase Activity, Analytical Biochemistry, 253: 169-174, 1997). Briefly, membrane aliquots were incubated in 0.1 M potassium phosphate buffer, pH 7.4, for 30 min at 37° C. with or without various concentrations of the compounds. After this period, the enzymatic reaction was started by the addition of the MAO substrate tyramine together with 1 U/ml horse-radish peroxidase (Roche Biochemicals) and 80 μM N-acetyl-3,7,-dihydroxyphenoxazine (Amplex Red, Molecular Probes). The samples were further incubated for 30 min at 37° C. in a final volume of 200 μl and absorbance was then determined at a wavelength of 570 nm using a SpectraMax plate reader (Molecular Devices). Background (non-specific) absorbance was determined in the presence of 10 μM clorgyline for MAO-A or 10 μM L-deprenyl for MAO-B.
IC50 values were determined from inhibition curves obtained using nine inhibitor concentrations in duplicate, by fitting data to a four parameter logistic equation using a computer program.

As a reminder, the IC50 is the midpoint of a concentration-inhibition curve.

Structures are written as SMILES. Structures can show the parent of a compound that is named as a salt.

With `C[C@H](NC(=O)c1ccc(OCc2cccc(F)c2)cc1F)C(N)=O` [Example 1, (S)-N-(1-Carbamoyl-ethyl)-2-fluoro-4-(3-fluoro-benzyloxy)-benzamide], the IC50 worked out at 5.9 nM. The same measure for `NC(=O)CNC(=O)c1ccc(OCc2cccc(F)c2)cc1F` [Example 2, 2-[4-(3-Fluorobenzyloxy)-2-fluoro-benzamido]acetamide]: 15.3 nM. The result for `COC[C@H](C)NC(=O)c1ccc(OCc2cccc(F)c2)cc1F` [Example 4, (S)-2-Fluoro-4-(3-fluoro-benzyloxy)-N-(2-methoxy-1-methyl-ethyl)-benzamide] reads 8 nM; that for `NC(=O)[C@H](CO)NC(=O)c1ccc(OCc2cccc(F)c2)cc1F` [Example 5, (S)-N-(1-Carbamoyl-2-hydroxy-ethyl)-2-fluoro-4-(3-fluoro-benzyloxy)-benzamide], 11.6 nM. As for `COCCNC(=O)c1ccc(OCc2cccc(F)c2)cc1F` [Example 6, 2-Fluoro-4-(3-fluoro-benzyloxy)-N-(2-methoxy-ethyl)-benzamide], the IC50 was 19.5 nM.

`NC(=O)CNC(=O)c1ccc(OCc2ccc(F)cc2)cc1F` [Example 10, 2-[4-(4-Fluorobenzyloxy)-2-fluoro-benzamido]acetamide]: the half-inhibitory concentration (IC50) was 11.6 nM. Consider `C[C@H](NC(=O)c1ccc(OCc2ccc(F)cc2)cc1F)C(N)=O` [Example 11, (S)-N-(1-Carbamoyl-ethyl)-2-fluoro-4-(4-fluoro-benzyloxy)-benzamide], for which the concentration for half-maximal inhibition (IC50) worked out at 7 nM. The same measure for `C[C@H](NC(=O)c1ccc(OCc2ccc(C(F)(F)F)cc2)cc1F)C(N)=O` [Example 12, (S)-N-(1-Carbamoyl-ethyl)-2-fluoro-4-(4-trifluoromethyl-benzyloxy)-benzamide]: 25.7 nM; for `C[C@H](NC(=O)c1ccc(OCc2ccc(F)cc2)c(F)c1)C(N)=O` [Example 18, (S)-N-(1-Carbamoyl-ethyl)-3-fluoro-4-(4-fluoro-benzyloxy)-benzamide]: 7 nM. The same measure for `NC(=O)CNC(=O)c1ccc(OCc2ccc(F)cc2)c(F)c1` [Example 19, 2-[4-(4-Fluorobenzyloxy)-3-fluoro-benzamido]acetamide]: 3.1 nM; for `NC(=O)[C@H](CO)NC(=O)c1ccc(OCc2ccc(F)cc2)c(F)c1` [Example 20, (S)-N-(1-Carbamoyl-2-hydroxy-ethyl)-3-fluoro-4-(4-fluoro-benzyloxy)-benzamide]: 11 nM. The same measure for `COCCNC(=O)c1ccc(OCc2ccc(F)cc2)c(F)c1` [Example 22, 3-Fluoro-4-(4-fluoro-benzyloxy)-N-(2-methoxy-ethyl)-benzamide]: 18 nM. In the case of `NC(=O)CNC(=O)c1ccc(OCc2cccc(F)c2)c(F)c1` [Example 25, 2-[4-(3-Fluorobenzyloxy)-3-fluoro-benzamido]acetamide], the IC50 worked out at 5 nM. Turning to `C[C@H](NC(=O)c1ccc(OCc2cccc(F)c2)c(F)c1)C(N)=O` [Example 26, (S)-N-(1-Carbamoyl-ethyl)-3-fluoro-4-(3-fluoro-benzyloxy)-benzamide], the half-maximal inhibitory concentration (IC50) is 19 nM.

For `C[C@@H](NC(=O)c1ccc(OCc2cccc(F)c2)c(F)c1)C(N)=O` [Example 27, (R)-N-(1-Carbamoyl-ethyl)-3-fluoro-4-(3-fluoro-benzyloxy)-benzamide], the IC50 turned out to be 23 nM. Regarding `NC(=O)[C@H](CO)NC(=O)c1ccc(OCc2cccc(F)c2)c(F)c1` [Example 28, (S)-N-(1-Carbamoyl-2-hydroxy-ethyl)-3-fluoro-4-(3-fluoro-benzyloxy)-benzamide], the IC50 is 12 nM.

Take `NC(=O)CNC(=O)c1ccc(OCc2ccc(C(F)(F)F)cc2)c(F)c1` [Example 31, 2-[4-(4-Trifluoromethylbenzyloxy)-3-fluoro-benzamido]acetamide]: the 50% inhibitory concentration (IC50) stood at 16 nM. The same measure for `NC(=O)[C@H](CO)NC(=O)c1ccc(OCc2ccc(C(F)(F)F)cc2)c(F)c1` [Example 34, (S)-N-(1-Carbamoyl-2-hydroxy-ethyl)-3-fluoro-4-(4-trifluoromethyl-benzyloxy)-benzamide]: 25 nM; for `NCCNC(=O)c1ccc(OCc2ccc(C(F)(F)F)cc2)c(F)c1` [Example 36, N-(2-Amino-ethyl)-3-fluoro-4-(4-trifluoromethyl-benzyloxy)-benzamide 1:1 hydrochloride]: 19 nM; for `C[C@H](NC(=O)c1c(F)cc(OCc2ccc(F)cc2)cc1F)C(N)=O` [Example 37, (S)-N-(1-Carbamoyl-ethyl)-2,6-difluoro-4-(4-fluoro-benzyloxy)-benzamide]: 22 nM. The result for `NC(=O)CNC(=O)c1c(F)cc(OCc2ccc(F)cc2)cc1F` [Example 39, N-Carbamoylmethyl-2,6-difluoro-4-(4-fluoro-benzyloxy)-benzamide] reads 27 nM; that for `COCCNC(=O)c1c(F)cc(OCc2ccc(F)cc2)cc1F` [Example 41, 2,6-Difluoro-4-(4-fluoro-benzyloxy)-N-(2-methoxy-ethyl)-benzamide], 13 nM; that for `C[C@@H](CO)NC(=O)c1c(F)cc(OCc2ccc(F)cc2)cc1F` [Example 45, (S)-2,6-Difluoro-4-(4-fluoro-benzyloxy)-N-(2-hydroxy-1-methyl-ethyl)-benzamide], 23 nM. For the compound `COCCNC(=O)c1c(F)cc(OCc2cccc(F)c2)cc1F` [Example 51, 2,6-Difluoro-4-(3-fluoro-benzyloxy)-N-(2-methoxy-ethyl)-benzamide], the IC50 turned out to be 24 nM.

Values taken from patent US6951884B2, “Fluorobenzamides and uses thereof” (Hoffmann-La Roche Inc., priority 2002, dated 2005).
